PMC10914731, “Homo-BacPROTAC-induced degradation of ClpC1 as a strategy against drug-resistant mycobacteria” (Nature Communications, 2024)
In brackets after ≈: the same amount, converted by molar mass. Several values for one entry are separate records, joined by “and”; a condition that tells them apart may be missing. Equal entries are not always repeated. Where two headings read alike, the source gives them in different places. Where a SMILES comes first, the peptide text is derived from it. [ ]: non-standard residue; d: D form. NMeLeu(5-OH,4R) = CN[C@@H](C[C@@H](C)CO)C(=O)O; Phe(βR-OMe) = CO[C@H](c1ccccc1)[C@H](N)C(=O)O; Trp(1-Me) = Cn1cc(C[C@H](N)C(=O)O)c2ccccc21; NMeL = CN[C@@H](CC(C)C)C(=O)O; Pra = C#CC[C@H](N)C(=O)O

Legend:
[1] = format: in vitro ADME, Rat; conditions: for Microsomal Stability Rat: clearance in microsomes
Outline: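 1 µmol/l cpd + 0.5 mg/ml microsomes, Tris-HCl 100 mM pH 7.5 / MgCl2 6.5 mM / NADPH 1 mM, 37 °C. Timed acetonitrile quench, spin, supernatant by HPLC-MS/MS. t1/2 from first-order decay → clearance %Qh, well-stirred model.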

[2] = in vivo; format: in vivo, BALB/cAnNCrl mice
Procedure: The in-life experimental procedures were conducted in strict compliance with German and European animal welfare legislation in an AAALAC-accredited facility. Male BALB/cAnNCrl mice (Charles River Laboratories Research Models and Services, 97633 Sulzfeld, Germany) were used. Animals were 9 weeks old at dosing with a body weight of 21.6–24.3 g. Animals were delivered free of pathogens according to FELASA recommendations with a health certificate provided by the breeder. Upon receipt, the state of health and sex was checked. Animals acclimatized for at least 5 days before the commencement of the in-life phase. During acclimation, animals were group-housed in individually ventilated cages, on birch wood granulate bedding with species-specific enrichment (nesting material, mouse igloo, gnawing wood). During experimental conduct, animals were housed in conventional cages with elevated grid floors. Grid floor was used to avoid contamination with test item material excreted via urine and feces and subsequent reuptake during fur grooming. No bedding and enrichment were provided except a cage divider, which can be used as a shelter. Animals always had unlimited access to food and water and received a pelleted, total pathogen-free maintenance diet and tap drinking water, sterilized by filter.
In case of incomplete dissolution, the formulation was filtered at 40 °C (non-pyrogenic sterile-R filter, 0.2 µm). All formulations were stirred warm until administration. Actual test item content was determined bioanalytically.
Male BALB/cAnNCrl mice (n = 3 per test item and administration route) received a bolus dose of the formulated test item(s) (1 mg/kg iv, 30 mg/kg po) at t = 0 h, and whole blood samples were collected subsequently (35 µl at 0.1 (iv) / 0.25 (po), 0.5, 1, 2, 4, 6 h; 600 µl at sacrifice after 24 h). Animals were euthanized by exsanguination in deep isoflurane anesthesia. Whole blood samples were immediately stored on ice at about 4 °C. Plasma was separated by centrifugation at approximately 10,000 × g for 5 m at +4 °C. Centrifugation of each blood sample was started within 10 m after collection. A single aliquot of at least 15 µL of plasma was prepared and immediately stored at −20 ± 5 °C.
Sample proteins were precipitated with ACN (1 + 12, v/v) containing internal standard, and supernatants analyzed by quantitative UPLC-MS/MS: Phenomenex Luna Omega C18, 2.1 × 50 mm, 1.6 µm, 40 °C, gradient between 10% - 90% ACN with 0.1% formic acid. LogD determination: Lipophilicity of the test items, expressed as chromLogD7.5, was assessed by measuring their chromatographic retention times on C18-material. The chromatographic retention versus logD7.5 values of a series of thirteen n-alkan-2-ones (2-butanone – 2-hexadecanone) served as lipophilicity calibration.

[3] = test system: Klebsiella pneumoniae; experiment: MIC ESKAPES panel, Klebsiella pneumoniae; format: cell-based
Procedure: (§1) Minimum inhibitory concentration (MIC) against ESKAPES panel of Gram positive and Gram negative pathogens (Enterococcus faecium, Staphylococcus aureus, Klebsiella pneumoniae, Acinetobacter baumannii, Pseudomonas aeruginosa, Enterobacter cloacae and Salmonella typhimurium [ESKAPES panel]) were determined at the FNDR by the standard broth dilution method [CLSI, M100]. […] Mueller Hinton broth (MHB) medium was used to grow ESKAPES panel strains. The individual cultures were added as 200 μL (inoculum of 3–7 × 10^5 cfu/ml) to the respective assay plates in each well to all columns, except the media control (200 μL of medium). […] The assay plates were incubated at 37 °C, and the results were noted on the 2nd day as turbidometric readout. The clear wells indicated inhibition of growth, while the turbid wells indicated uninhibited growth.

[4] = test system: Msm #607; experiment: Minimum bactericidal concentration (MBC), Msm #607; format: cell-based, Mycobacterium smegmatis; conditions: Mycolicibacterium smegmatis
[5] = test system: Pseudomonas aeruginosa; experiment: MIC ESKAPES panel, Pseudomonas aeruginosa; format: cell-based
Procedure: as §1

[6] = test system: Mtb # 8673; experiment: microbe, parasite or virus in culture; format: cell-based
[7] = test system: Mtb H37Rv in THP-1 macrophages; experiment: Intracellular MIC assay in THP-1 macrophages; format: cell-based, Mycobacterium tuberculosis; set-up: Emax: unit not given here
[8] = test system: Acinetobacter baumannii; experiment: MIC ESKAPES panel, Acinetobacter baumannii; format: cell-based
Procedure: as §1

[9] = iv bolus, individual animals 1-3
[10] = iv bolus, mice, Mean, BLOQ <1.00 nmol/l
[11] = male, BALB/cAnNCrl, mouse, in vivo, iv, 0.0677 umol/kg, iv bolus, individual animals 1-3
[12] = male, BALB/cAnNCrl, mouse, in vivo, iv, 0.0677 umol/kg, iv bolus, mice, Mean
[13] = Gram-Negative Bacteria, replicates 1-3
[14] = Klebsiella pneumoniae, Gram negative, n = 3 well replicates
[15] = Klebsiella pneumoniae, Gram-Negative Bacteria, replicates 1-3
[16] = ATCC607, read-out: MBC (from Set 3) Msm ATCC 607
[17] = read-out: MBC Msm #607, individual example
[18] = Pseudomonas aeruginosa, Gram negative, n = 3 well replicates
[19] = Pseudomonas aeruginosa, Gram-Negative Bacteria, replicates 1-3
[20] = Mycobacterium tuberculosis, mean, n = 2 well replicates
[21] = Mycobacterium tuberculosis, single well replicates
[22] = Gram negative, n = 3 well replicates, read-out: MIC Acinetobacter baumanii
[23] = Gram-Negative Bacteria, replicates 1-3, read-out: MIC Acinetobacter baumannii

In the case of `CO[C@H](c1ccccc1)[C@@H]1NC(=O)[C@H](C)NC(=O)[C@H](C[C@@H](C)CO)N(C)C(=O)[C@H](Cc2cn(Cc3cn(CCOCCn4cc(Cn5cc(C[C@@H]6NC(=O)[C@H](C(C)C)NC(=O)[C@H](CC(C)C)N(C)C(=O)[C@H](C(C)C)NC(=O)[C@H]([C@H](OC)c7ccccc7)NC(=O)[C@H](C)NC(=O)[C@H](C[C@@H](C)CO)N(C)C6=O)c6ccccc65)nn4)nn3)c3ccccc23)NC(=O)[C@H](C(C)C)NC(=O)[C@H](CC(C)C)N(C)C(=O)[C@H](C(C)C)NC1=O` [Compound 6], the “Microsomal Stability Rat QH” value [1] is reported as under 23.100%, the “Microsomal Stability Rat” value [1] is reported as under 23 %Qh and the Cmax ([2]; dose-normalized, mice, 1 mg kg-1 iv bolus) is reported as 1820 nM/(nmol kg-1). For the same compound, the AUC0-inf/Dose [2, 9] was 3260 h nM/(nmol kg-1) and 5150 h nM/(nmol kg-1) and 5870 h nM/(nmol kg-1), the AUC0-t/Dose [2, 9] was 2600 h nM/(nmol kg-1) and 5020 h nM/(nmol kg-1) and 5730 h nM/(nmol kg-1) and the CL [2, 9] was 3.2 mL/min/kg and 2.8 mL/min/kg. The “CL PL QH” value [2, 9] was 5.7% and 3.6% and 3.2%, the MRT [2, 9] was 5.1 h and 5.3 h and the “Plasma concentration 0.1 h” value [2, 9] was 128 nM and 127 nM and 114 nM. The “Plasma concentration 0.5 h” value [2, 9] was 47.9 nM and 51.6 nM and 58 nM, the “Plasma concentration 1 h” value [2, 9] was 44.8 nM and 45.0 nM and 44.5 nM and the “Plasma concentration 2 h” value [2, 9] was 32.5 nM and 36.4 nM and 39.6 nM. For the same compound, the “Plasma concentration 4 h” value [2, 9] was 17.3 nM and 22.2 nM and 13.8 nM, the Vss [2, 9] was 1.0 L/kg and 0.9 L/kg and the t1/2 [2, 9] was 4.8 h and 4.9 h. The “Plasma concentration 6 h” value ([2]; iv bolus, individual animals 1-3, BLOQ <1.00 nmol/l) was 11.6 nM and 14.7 nM and 20.6 nM, the Cmax ([2]; iv bolus, individual animals 1-3, read-out: Cmax) was 127 nM and 114 nM and the AUC0-inf/Dose ([2]; iv bolus, mice, Mean) was 4760 h nM/(nmol kg-1). The AUC0-t/Dose ([2]; iv bolus, mice, Mean) was 4450 h nM/(nmol kg-1), the “CL PL QH” value ([2]; iv bolus, mice, Mean) was 4.1% and the “Plasma concentration 0.1 h” value ([2]; iv bolus, mice, Mean) was 123 nM. For the same compound, the “Plasma concentration 0.5 h” value ([2]; iv bolus, mice, Mean) was 52.5 nM, the “Plasma concentration 1 h” value ([2]; iv bolus, mice, Mean) was 44.8 nM and the “Plasma concentration 2 h” value ([2]; iv bolus, mice, Mean) was 36.2 nM. The “Plasma concentration 4 h” value ([2]; iv bolus, mice, Mean) was 17.8 nM, the “Plasma concentration 6 h” value [2, 10] was 15.6 nM and the “Plasma concentration 24 h” value [2, 10] was 1.3 nM. The tmax ([2]; male, BALB/cAnNCrl, mouse, in vivo, 0.0677 umol/kg, iv bolus, individual animals 1-3) was 6 min, the clearance [2, 11] was 5.1 mL/min/kg and the half-life [2, 11] was 2.7 h. For the same compound, the Cmax ([2]; male, BALB/cAnNCrl, mouse, in vivo, iv, 0.0677 umol/kg, iv bolus, individual animals 1-3, read-out: Cmax) was 128 nM, the MRT ([2]; male, BALB/cAnNCrl, mouse, in vivo, iv, 0.0677 umol/kg, iv bolus, individual animals 1-3, read-out: MRT) was 3.6 h and the Vd ([2]; male, BALB/cAnNCrl, mouse, in vivo, iv, 0.0677 umol/kg, iv bolus, individual animals 1-3, read-out: Vss) was 1.1 L/kg. It also gave a clearance [2, 12] of 3.7 mL/min/kg, a half-life [2, 12] of 4.1 h and a Cmax ([2]; male, BALB/cAnNCrl, mouse, in vivo, iv, 0.0677 umol/kg, iv bolus, mice, Mean, read-out: Cmax) of 123 nM. The MRT ([2]; male, BALB/cAnNCrl, mouse, in vivo, iv, 0.0677 umol/kg, iv bolus, mice, Mean, read-out: MRT) was 4.7 h, the Vd ([2]; male, BALB/cAnNCrl, mouse, in vivo, iv, 0.0677 umol/kg, iv bolus, mice, Mean, read-out: Vss) was 1 L/kg and the Vd ([2]; male, BALB/cAnNCrl, mouse, in vivo, iv, 1 mg/kg, mice, 1 mg kg-1 iv bolus, read-out: VSS) was 0.95 L/kg. For the same compound, the clearance ([2]; male, BALB/cAnNCrl, mouse, in vivo, iv, 1 mg/kg, plasma clearance, mice, 1 mg kg-1 iv bolus) was 3.73 mL/min/kg and the half-life ([2]; male, BALB/cAnNCrl, mouse, in vivo, iv, 1 mg/kg, plasma, mice, 1 mg kg-1 iv bolus) was 3.33 h.
Work on `C#CC[C@@H]1NC(=O)[C@H](CC(C)C)N(C)C(=O)[C@H](C(C)C)NC(=O)[C@H]([C@H](OC)c2ccccc2)NC(=O)[C@H](C)NC(=O)[C@H](C[C@@H](C)CO)N(C)C(=O)[C@H](Cc2cn(C)c3ccccc23)NC1=O` [Compound 10] (cyclo(A[Phe(βR-OMe)]V[NMeL][Pra][Trp(1-Me)][NMeLeu(5-OH,4R)])) yielded an MIC [3, 13] of over 50 µM, an MIC [3, 14] of over 50 µM and an MIC [3, 15] of over 45.6 µg/mL. The MBC [4, 16] was > 45.6 µg/mL and > 50 µM, the MBC [4, 17] was > 50 µM and > 45.7 µg/mL and the MIC [5, 13] was over 50 µM. The MIC [5, 18] was over 50 µM, the MIC [5, 19] was over 45.6 µg/mL and the MIC [6, 20] was 0.4 µM and 0.4 µg/mL. The MIC [6, 21] was 0.39 µM and 0.36 µg/mL, the MIC ([6]; single well replicates) was 0.39 µM (≈ 0.356 µg/mL) and the “MIC Mtb # 8673” value ([6]; single well replicates) was 0.36 µg/mL (≈ 0.394 µM). For the same compound, the “Microsomal Stability Rat QH” value [1] was 84.600%, the “Microsomal Stability Rat” value [1] was 85 %Qh and the Emax [7] was 0.19. For the same compound, the MIC [8, 22] was over 50 µM and the MIC [8, 23] was > 50 µM and > 45.6 µg/mL.
For `COc1c(N2C[C@@H]3CCCN[C@@H]3C2)c(F)cc2c(=O)c(C(=O)O)cn(C3CC3)c12` [Moxifloxacin, reference compound], the MIC [3, 14] was 1.3 µM, the MIC [3, 15] was 1.25 µM and 0.5 µg/mL and the MBC [4, 16] was 0.13 µg/mL and 0.31 µM. The MBC [4, 17] was 0.3 µM and 0.1 µg/mL, the MIC [5, 18] was 2.5 µM and the MIC [5, 19] was 2.49 µM and 1 µg/mL. For the same compound, the MIC [6, 20] was 0.1 µM and 0.1 µg/mL, the MIC [6, 21] was 0.15 µM and 0.06 µg/mL and the MIC ([6]; single well replicates) was 0.15 µM (≈ 0.0602 µg/mL). For the same compound, the “MIC Mtb # 8673” value ([6]; single well replicates) was 0.06 µg/mL (≈ 0.149 µM), the MIC [8, 22] was 0.3 µM (≈ 0.12 µg/mL) and the MIC [8, 23] was 0.31 µM and 0.125 µg/mL.
